The values that follow come from US4575509A, “Water-soluble formulations of m-AMSA with pyroglutamic acid” (Bristol-Myers Company, priority 1984, dated 1986).

The nature of series [1]: physchem. The format is physicochemical. The note with it: water. The method, then:
DL-Pyroglutamic acid (130 mg) was dispersed in 20 ml of acetone to form a solution. To this solution there was added 400 mg of m-AMSA free base. The mixture was stirred and 10 ml of methyl alcohol added drop by drop. Upon agitation, a yellow solid gradually precipitated. The precipitate was collected, washed twice with acetone and dried in vacuo to give the title salt having a melting point of 156°-158° C. and an aqueous solubility at room temperature of about 10 mg/ml.
m-AMSA base (400 mg) was suspended in 30 ml of dried acetone. With gentle stirring, a solution was obtained by gradually adding a solution of 260 mg of DL-pyroglutamic acid in 15 ml of methanol to the above suspension. Two 10 ml portions of dried methanol were added to the solution to precipitate the dipyroglutamate salt. The salt was isolated by filtration, washed with methanol and dried in a vacuum dessicator. The yield of dipyroglutamate salt was about 600 mg; mp 145°-148° C.

A short description of series [2]: Solubility test in sterile water for injection (saturated filtrate, HPLC, m-AMSA base content). The note with it: 0.22μ filtrate, HPLC assay within one hour after reconstitution. The format is physicochemical. The method, then: To determine the relative solubilities of the pyroglutamate salts and compositions of the present invention and the prior art m-AMSA methanesulfonate salt, the following solubility test was carried out.
The following formulations were tested: […]
The formulations were prepared as follows: […]
(1) The m-AMSA methanesulfonate salt was prepared by slurrying 1 g of m-AMSA base in 125 ml of acetone for 20 minutes. The resulting near solution was vacuum filtered to remove undissolved solids. The solids remaining in the filter were washed with 10 ml of acetone and the wash solution was added to the original filtrate. To the above solution of m-AMSA base there was added with rapid stirring 0.24 ml of methanesulfonic acid over a three minute interval. Crystals formed and the mixture was stirred five additional minutes. The crystals were then vacuum filtered, washed with two 20 ml portions of acetone and vacuum dried at 50° C. for 24 hours to give 1.18 g of m-AMSA methanesulfonate (1:1) salt.
(2) The composition containing m-AMSA base and methanesulfonic acid (1:2 ratio) was prepared by adding 1 equivalent of methanesulfonic acid to the 1:1 m-AMSA methanesulfonate salt prepared above.
(3) The 1:1 m-AMSA pyroglutamate salt was prepared as described in Example 1.
(4) The 1:2 m-AMSA pyroglutamate salt was prepared as described in Example 2.
To carry out the solubility test, accurately weighed amounts of the above-described formulations were added into accurately measure amounts of sterile water for injection and the mixture was shaken by Vortex® mixer for 5 minutes to yield a complete solution. The procedure was continued until no more material dissolved in the solution. The saturated solutions were then passed through a 0.22μ Millipore® filter. The resultant clear filtrates were sampled and assayed via HPLC assay within one hour after reconstitution. Solubility was measured as the m-AMSA base content in the filtrate.

The next series has as its system animal tumor systems. The note with it: Cain et al. 1974; cited from earlier work.
The conditions of series [3]: initial results; cited from earlier work.
The conditions of series [4]: literature references / prior art, cited from earlier work.
The conditions of series [5]: penicillin G, ampicillin, cephalothin etc.; U.S. Pat. No. 3,920,814; cited from earlier work.
The nature of series [6]: physchem. The format is physicochemical. The note with it: water, found by the present inventors, read-out: aqueous solubility.

Where a name gives a salt, the structure may show the parent alone. Read-outs that look alike come from different tables or passages of the source.

Turning to `COc1cc(NS(C)(=O)=O)ccc1Nc1c2ccccc2nc2ccccc12` [Example 1, m-AMSA Mono DL-Pyroglutamate Salt], the solubility in the series “physchem [1]” (room temperature, read-out: aqueous solubility) is ~10 mg/mL. Moreover, the “Solubility (mg/ml m-AMSA base)” value in series [2] (listed as m-AMSA pyroglutamate salt (1:1)) was determined as 12.5 mg/ml m-AMSA base.
With `COc1cc(NS(C)(=O)=O)ccc1Nc1c2ccccc2nc2ccccc12` [m-AMSA], the antitumor activity result in the series on animal tumor systems is on record as “significant antitumor activity”. Besides, in series [3], the clinical evaluation entry is “very promising initial results”. The “solubility in water (words)” value in series [4] is “very limited solubility in water”.
As for `O=C1CCC(C(=O)O)N1` (stereo not drawn) [pyroglutamic acid, 2-pyrrolidone-5-carboxylic acid], the effect on antibiotics entry in series [5] is “potentiate the intrinsic activity and blood levels of certain antibiotics”.
Consider `COc1cc(NS(C)(=O)=O)ccc1Nc1c2ccccc2nc2ccccc12` [m-AMSA methanesulfonate salt (1:1), m-AMSA methanesulfonate salt], for which, in series [2] (methanesulfonate salt), the “Solubility (mg/ml m-AMSA base)” value came out at 0.090 mg/ml m-AMSA base. Besides, the “solubility in water (words)” value in series [4] (listed as monomethanesulfonate salt of m-AMSA, methanesulfonate salt) is reported as “sufficiently soluble for experimental small animal (mice) antitumor studies”; in series [4] (listed as monomethanesulfonate, methanesulfonate salt) it was “insufficiently water-soluble for practical dosage forms”; in series [4] (methanesulfonate salt), “only slightly soluble in water”. For the same compound, the solubility in the series “physchem [6]” was ~90 µg/mL.
With `COc1cc(NS(C)(=O)=O)ccc1Nc1c2ccccc2nc2ccccc12` [monohydrochloride], the “solubility in water (words)” value was “insufficiently water-soluble for practical dosage forms” in series [4] and “only slightly soluble in water” in series [4] (listed as hydrochloride).
`COc1cc(NS(C)(=O)=O)ccc1Nc1c2ccccc2nc2ccccc12` [Example 2, m-AMSA Di DL-Pyroglutamate Salt]: in “physchem [1]” (m-AMSA base content by HPLC, read-out: aqueous solubility (m-AMSA base content as determined by HPLC)), the solubility came to 13.1 mg/mL. Further, the “Solubility (mg/ml m-AMSA base)” value in series [2] (listed as m-AMSA pyroglutamate salt (1:2)) is listed as 13.1 mg/ml m-AMSA base.
